Data: PubChem BioAssay (NCI)
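Each compound was tested at five concentrations against cells in 96-well plates for 48 hours. GI50 is the concentration that inhibits growth by half. The concentration for full growth arrest is given as TGI.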

What was measured:
Experiment in all cases: NCI tumour cell line growth inhibition, 48 h
HOP-18 NSCLC = tested on: HOP-18 NSCLC
DLD-1 colon = tested on: DLD-1 colon
KM20L2 colon = tested on: KM20L2 colon
DMS 273 small cell lung = tested on: DMS 273 small cell lung
DMS 114 small cell lung = tested on: DMS 114 small cell lung
M19-MEL melanoma = tested on: M19-MEL melanoma
MDA-N = tested on: MDA-N
XF 498 CNS = tested on: XF 498 CNS
RXF-631 renal = tested on: RXF-631 renal

Row | SMILES | TGI (HOP-18 NSCLC) [µM] | TGI (DLD-1 colon) [µM] | TGI (KM20L2 colon) [µM] | TGI (DMS 273 small cell lung) [µM] | TGI (DMS 114 small cell lung) [µM] | TGI (M19-MEL melanoma) [µM] | TGI (MDA-N) [µM] | TGI (XF 498 CNS) [µM] | TGI (RXF-631 renal) [µM] | GI50 (HOP-18 NSCLC) [µM] | GI50 (DLD-1 colon) [µM] | GI50 (XF 498 CNS) [µM] | GI50 (RXF-631 renal) [µM] | GI50 (KM20L2 colon) [µM] | GI50 (DMS 273 small cell lung) [µM] | GI50 (DMS 114 small cell lung) [µM] | GI50 (M19-MEL melanoma) [µM]
1 | Cc1ccc(/C=C/C(=O)c2sc(-n3nc(-c4ccccc4)cc3-c3ccccc3)nc2C)cc1 | > 100 | > 100 | > 100 | > 100 | > 100 | > 100 |  |  |  |  |  |  |  |  |  |  | 
2 | COc1cc([N+](=O)[O-])c(S(=O)(=O)O)cc1-n1nc(C(=O)Nc2ccccc2)n[n+]1-c1cc(S(=O)(=O)[O-])c([N+](=O)[O-])cc1OC |  |  |  |  |  |  | > 100 |  |  |  |  |  |  |  |  |  | 
3 | O=C1C=C2CCCC2C(C(=O)O)(C(=O)O)C1 (stereo not drawn) |  | > 100 |  | > 100 | > 100 | > 100 |  | > 100 | > 100 |  |  |  |  |  |  |  | 
4 | COc1cc([C@@H]2c3cc4c(cc3[C@@H](OC(=O)c3cccc(N)c3)C3COC(=O)[C@@H]32)OCO4)cc(OC)c1O (stereo partly drawn) |  | > 100 | 26.8 | > 100 |  | > 100 |  | 35 |  |  |  |  |  |  |  |  | 
5 | Cc1ccc(N=C2N=C(N3CC(C)OC(C)C3)c3ccccc32)cc1 (stereo not drawn) |  | > 100 | > 100 | 77.1 |  | > 100 |  | 64.5 | > 100 |  |  |  |  |  |  |  | 
6 | CCCc1nc(Cl)c(Cl)c(Cl)n1 |  |  |  |  |  |  | > 100 |  |  |  |  |  |  |  |  |  | 
7 | CCCCNC(=S)OCCC(C)CCCC(C)C (stereo not drawn) | > 100 | > 100 | > 100 | > 100 | > 100 | > 100 |  | > 100 |  |  |  |  |  |  |  |  | 
8 | CC(C)OC/N=C(/N)NC#N | > 100 | > 100 | > 100 | > 100 | > 100 | > 100 |  | > 100 | > 100 |  |  |  |  |  |  |  | 
9 | CCCCCCCCCCCCCCCC(=O)OCCOCCOCCOCCOCCOC(=O)CCCCCCCCCCCCCCC | > 100 | > 100 | > 100 | > 100 | > 100 | > 100 |  |  | > 100 |  |  |  |  |  |  |  | 
10 | COc1cc2c(c(OC)c1OC)-c1ccc(SC)c(=O)cc1[C@@H](NC(=O)C(F)(F)F)CC2 | > 100 | > 100 | < 0.0115 | > 100 |  | > 100 | < 0.01 | 2.37 |  |  |  |  |  |  |  |  | 
11 | COc1ccc2c(c1)CCc1cc(OC)ccc1/[N+]([O-])=[N+]\2[O-] |  |  |  |  |  |  | 29.8 |  |  |  |  |  |  |  |  |  | 
12 | CCOC(=O)c1[nH]c2cc(OC)c(OC)cc2c1CN(C)C |  | > 100 | > 100 |  | > 100 |  |  |  |  |  |  |  |  |  |  |  | 
13 | O=C(Nc1ccc(Cl)cc1C(=O)O)c1ccc([N+](=O)[O-])cc1 |  | 30.9 | 48.3 | 67.1 | 36.8 | 55.9 |  | 90.1 | > 100 |  |  |  |  |  |  |  | 
14 | C[N+](C)(C)c1cc[c]([Sn]([c]2ccc([N+](C)(C)C)cc2)([c]2ccc([N+](C)(C)C)cc2)[c]2ccc([N+](C)(C)C)cc2)cc1 | > 100 | > 100 | > 100 | > 100 | > 100 | > 100 |  | > 100 | > 100 | > 100 | > 100 | > 100 | > 100 | > 100 | > 100 | > 100 | > 100
15 | O=C(CCC(=O)Nc1cccc(C(F)(F)F)c1)CC(=O)c1ccc2ccccc2c1 | > 100 | > 100 | > 100 | > 100 | > 100 | > 100 |  | > 100 | > 100 |  |  |  |  |  |  |  | 
16 | CC1=CP(=O)(c2ccccc2)C=C(C)C1=C(Cl)Cl (stereo not drawn) | 45.2 | 27.1 | 4.61 | 9.22 | 28.9 | 30.3 |  | 34.8 |  |  |  |  |  |  |  |  | 
17 | CC(=O)NNc1nc(C)c(C(=O)NNC(=O)C(=O)Nc2c([N+](=O)[O-])ccc(C)c2C)s1 |  | > 100 | > 100 | > 100 | > 100 | > 100 |  | > 100 |  |  |  |  |  |  |  |  | 
18 | N#CC1(C#N)C=CC(=C2OCC3CCCN23)C=C1 (stereo not drawn) | > 100 | > 100 | > 100 | > 100 | > 100 | > 100 |  |  |  |  |  |  |  |  |  |  | 
